How the values were obtained:
[1] = system: NCI-H23 human non-small cell lung cancer; assay: NCI-H23 CCK-8 proliferation assay; type: cell-based; settings: NCI-H23 cells, 72 hr
Experimental: (§1) The following cancer cell lines were employed: BT-474 human breast carcinoma (ATCC, #HTB-20); MIA PaCa-2 human pancreatic carcinoma [2 copies KRAS(G12C)](ATCC, #CRL-1420); NCI-H23 human non-small cell lung cancer [1 copy KRAS(G12C)](ATCC, #CRL-5800); NCI-H358 human non-small cell lung cancer [1 copy KRAS(G12C)](ATCC, #CRL-5807); LU65A human lung carcinoma (Pharmaron, Beijing, China). Cell lines were cultured essentially according to ATCC and Pharmaron recommendations.
Cancer Cell Line Proliferation (CCK-8) Assays
3-fold serial dilutions of each test compound were prepared ranging from 20 μM to 1.02 nM.
% Inhibition=100−(D−B)/(S−B)*100%. • S: Absorbance of cells treated with DMSO • D: Absorbance of compound-treated cells • B: Absorbance of medium with DMSO without cells

[2] = system: NCI-H358 human non-small cell lung cancer; assay: NCI-H358 CCK-8 proliferation assay; type: cell-based; settings: NCI-H358 cells, 72 hr
In short: (§2)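 Proliferation of mutant-KRAS(G12C) cells (2 copies in MIA PaCa-2, single copy in NCI-H358/NCI-H23) measured with CCK-8 after treatment across 20 μM–1.02 nM; inhibition expressed relative to vehicle-treated wells after subtracting no-cell background.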

HSP90a protein = biological target: T1, HSP90a protein (Homo sapiens, UniProt P07900); assay: HSP90α-binding fluorescent polarization (FP) assay, BODIPY-labeled RNK04010 probe; settings: FP competition with RNK04010 (BODIPY-labeled), 5 nM, 300 min at 25° C.
T1 construct: purchased BPS Bioscience 50298
In short: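 Polarization signal was read after equilibration at 25° C, for 120 min with FITC-geldanamycin or 300 min with the BODIPY-tagged RNK04010 probe, each at 5 nM final. Compounds spanned 20 μM down to 5.2 nM in 2.5-fold dilutions against the HSP90a N-terminal domain.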

KRAS(G12C) [3] = biological target: T2, KRAS(G12C) (Homo sapiens, UniProt P01116, G12C); assay: KRAS(G12C) Western blot protein degradation assay in MIA PaCa-2 cells; type: cell-based; set-up: host or cells: LU65A; settings: 48 hr; for inhibition at 0.1562 µM: 156.2 nM; for inhibition at 0.3125 µM: 312.5 nM; for inhibition at 0.625 µM: 625 nM; for inhibition at 1.25 µM: 1250 nM; for inhibition at 2.5 µM: 2500 nM; for inhibition at 5 µM: 5000 nM; for inhibition at 10 µM: 10,000 nM
T2 sequence (P01116 1-188 isoform P01116-2 G12C): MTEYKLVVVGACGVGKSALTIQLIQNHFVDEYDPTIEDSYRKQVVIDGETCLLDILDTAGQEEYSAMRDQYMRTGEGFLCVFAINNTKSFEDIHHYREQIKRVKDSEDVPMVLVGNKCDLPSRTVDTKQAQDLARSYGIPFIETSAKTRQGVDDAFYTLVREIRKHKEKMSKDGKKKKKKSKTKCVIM
Experimental: as §1
KRAS(G12C) Western Blot Protein Degradation Assay
The MIA PaCa-2 human pancreatic carcinoma cell line and LU65A human lung cancer cell line, which expresses KRAS(G12C), were seeded in 6- or 12-well tissue culture plates, and after 1 hr, test compounds were added at various concentrations and incubated at 37° C./5% CO2 for 48 hr (MIA Paca-2) and 6 hr (LU65A) respectively. Cells were then washed with cold PBS, aspirated and cold RIPA buffer containing a protease/phosphatase inhibitor cocktail was added to lyse cells. After centrifugation, the total protein concentrations of cell lysates were determined using the BCA protein assay. Samples were normalized for equivalent protein concentrations, 5×SDS-PAGE loading buffer added and denatured at 100° C. for 10 min. 20 μl of each sample/well was loaded on a SDS-PAGE gel and electrophoresed for 20 min at 80 V, then 120 V for 1.5 hr. Gels were then electroblotted to nitrocellulose membranes using a wet-transfer method at 250 mA for 2.5 hr. Membranes were incubated with blocking buffer for 1 hr and washed 3 times with TBST for 5 min. Membranes were then incubated with anti-KRAS (Sigma-Aldrich, #SAB1404011) and anti-β-Actin monoclonal antibodies (Cell Signaling Technology, #3700) diluted in blocking buffer at 4° C. overnight per the manufacturer's recommendations. After washing 3 times, blots were incubated with appropriately labeled secondary antibodies for 1 hr at room temperature and washed again. Fluorescence imaging and quantitation was performed using a LI-COR Odyssey. Results was analyzed using GraphPad Prism 7 software. Compound degradation of was determined by the following equation and DC50 values (the concentration at which 50% of the maximal degradation of KRAS occurs) calculated using GraphPad Prism 7 software:
% Inhibition=100−(D−B)/(S−B)*100%. • S: Fluorescence intensity of cells with antibody • D: Fluorescence intensity of compound-treated cells with antibody • B: Fluorescence intensity of cells without antibody

[4] = system: MIA PaCa-2 human pancreatic carcinoma; assay: MIA PaCa-2 CCK-8 proliferation assay; type: cell-based; settings: Homo sapiens, MIA PaCa-2, 72 h, MIA PaCa-2 cells
In short: as §2

KRAS(G12C) [5] = biological target: T2, KRAS(G12C); assay: KRAS(G12C)/SOS1 homogeneous time-resolved fluorescence (HTRF) assay; set-up: purchased Cisbio 63ADK000CB16PEG; settings: absence of GTP, 4° C. for 3 hr, read-out: KRAS (G12C) binding
In short: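 HTRF kit measuring compound-induced block of KRAS(G12C)-SOS1 interaction without GTP. Compounds tested as 3-fold serial dilutions down to 1.02 nM, incubated with reaction components 3 h at 4 °C in sealed plates before fluorescence read.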

KRAS(G12C) [6] = biological target: T2, KRAS(G12C); assay: KRAS(G12C) Western blot protein degradation assay in LU65A cells; type: cell-based; set-up: LU65A human lung cancer cell line, which expresses KRAS(G12C); host or cells: LU65A; settings: 6 hr
In short: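 Cells treated with compound at various concentrations at 37 °C for 48 hr (MIA PaCa-2) or 6 hr (LU65A), then lysed in RIPA. Protein-normalized lysates immunoblotted for KRAS with β-actin, fluorescence quantified; DC50 is the concentration giving 50% of maximal KRAS degradation.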

C=CC(=O)N1CCN(c2nc(NCCC(=O)NCCc3ccc(CN4CCC(Cc5ccc(-n6c(C(=O)NCC(F)(F)F)nnc6-c6cc(C(C)C)c(O)cc6O)cc5)CC4)cc3)nc3c2CCN(c2cccc4ccccc24)C3)C[C@H]1CC#N [Compound 108, (R)-4-(4-((1-(4-(2-(3-((4-(4-acryloyl-3-(cyanomethyl)piperazin-1-yl)-7-(naphthalen-1-yl)-5,6,7,8-tetrahydropyrido[3,4-d]pyrimidin-2-yl)amino)propanamido)ethyl)benzyl)piperidin-4-yl)methyl)phenyl)-5-(2,4-dihydroxy-5-isopropylphenyl)-N-(2,2,2-trifluoroethyl)-4H-1,2,4-triazole-3-carboxamide, trifluoroacetic acid, trifluoroacetic acid, trifluoroacetic acid, trifluoroacetic …]
EC50 [1]: 100 to 1000 nM
EC50 [2]: 100 to 1000 nM
IC50 (HSP90a protein): 100 to 1000 nM

C=CC(=O)N1CCN(c2nc(NCCC(=O)N3CCC(CN4CCN(Cc5ccc(-n6c(C(N)=O)nnc6-c6cc(CC)c(O)cc6O)cc5)CC4)CC3)nc3c2CCN(c2cccc4ccccc24)C3)C[C@H]1CC#N [Compound 98, (R)-4-(4-((4-((1-(3-((4-(4-acryloyl-3-(cyanomethyl)piperazin-1-yl)-7-(naphthalen-1-yl)-5,6,7,8-tetrahydropyrido[3,4-d]pyrimidin-2-yl)amino)propanoyl)piperidin-4-yl)methyl)piperazin-1-yl)methyl)phenyl)-5-(5-ethyl-2,4-dihydroxyphenyl)-4H-1,2,4-triazole-3-carboxamide, trifluoroacetic acid]
EC50 [1]: 100 to 1000 nM
EC50 [2]: 100 to 1000 nM
IC50 (HSP90a protein): < 100 nM

C=CC(=O)N1CCN(c2nc(NCCC(=O)N[C@H](C)c3ccc(CN4CCC(Cc5ccc(-n6c(O)nnc6-c6cc(C(C)C)c(O)cc6O)cc5)CC4)cc3)nc3c2CCN(c2cc(O)cc4ccccc24)C3)CC1 [Compound 18, (R)-3-((4-(4-acryloylpiperazin-1-yl)-7-(3-hydroxynaphthalen-1-yl)-5,6,7,8-tetrahydropyrido[3,4-d]pyrimidin-2-yl)amino)-N-(1-(4-((4-(4-(3-(2,4-dihydroxy-5-isopropylphenyl)-5-hydroxy-4H-1,2,4-triazol-4-yl)benzyl)piperidin-1-yl)methyl)phenyl)ethyl)propanamide, trifluoroacetic acid]
EC50 [1]: 100 to 1000 nM
EC50 [2]: 100 to 1000 nM
IC50 (HSP90a protein): 100 to 1000 nM

C=CC(=O)N1CCN(c2nc(OC[C@@H]3CCN(C(=O)C4CCN(Cc5ccc(-n6c(O)nnc6-c6cc(C(C)C)c(O)cc6O)cc5)CC4)C3)nc3c2CCN(c2cccc4cccc(Cl)c24)C3)C[C@@H]1CC#N [Compound 148, 2-((S)-1-acryloyl-4-(7-(8-chloronaphthalen-1-yl)-2-(((R)-1-(1-(4-(3-(2,4-dihydroxy-5-isopropylphenyl)-5-hydroxy-4H-1,2,4-triazol-4-yl)benzyl)piperidine-4-carbonyl)pyrrolidin-3-yl)methoxy)-5,6,7,8-tetrahydropyrido[3,4-d]pyrimidin-4-yl)piperazin-2-yl)acetonitrile]
inhibition at 0.1562 µM (KRAS(G12C) [3]): < 33%
inhibition at 0.3125 µM (KRAS(G12C) [3]): < 33%
inhibition at 0.625 µM (KRAS(G12C) [3]): < 33%
inhibition at 1.25 µM (KRAS(G12C) [3]): < 33%
inhibition at 2.5 µM (KRAS(G12C) [3]): < 33%
inhibition at 5 µM (KRAS(G12C) [3]): < 33%
inhibition at 10 µM (KRAS(G12C) [3]): 33 to 66%
EC50 [2]: 100 to 1000 nM
EC50 [4]: 100 to 1000 nM
IC50 (KRAS(G12C) [5]): 100 to 1000 nM
IC50 (HSP90a protein): < 100 nM

C=CC(=O)N1CCN(c2nc(OC[C@@H]3CCN(C(=O)c4cc(C(C)C)c(O)cc4O)C3)nc3c2CCN(c2cccc4cccc(Cl)c24)C3)C[C@@H]1CC#N [Compound 157, 2-((S)-1-acryloyl-4-(7-(8-chloronaphthalen-1-yl)-2-(((R)-1-(2,4-dihydroxy-5-isopropylbenzoyl)pyrrolidin-3-yl)methoxy)-5,6,7,8-tetrahydropyrido[3,4-d]pyrimidin-4-yl)piperazin-2-yl)acetonitrile]
inhibition at 0.1562 µM (KRAS(G12C) [3]): < 33%
inhibition at 0.3125 µM (KRAS(G12C) [3]): < 33%
inhibition at 0.625 µM (KRAS(G12C) [3]): < 33%
inhibition at 1.25 µM (KRAS(G12C) [3]): < 33%
inhibition at 2.5 µM (KRAS(G12C) [3]): < 33%
inhibition at 5 µM (KRAS(G12C) [3]): < 33%
inhibition at 10 µM (KRAS(G12C) [3]): < 33%
EC50 [2]: > 1000 nM
IC50 (KRAS(G12C) [5]): > 1000 nM
IC50 (HSP90a protein): > 1000 nM

C=CC(=O)N1CCN(c2nc(OC[C@@H]3CCN(CCC(=O)c4cc(C(C)C)c(O)cc4O)C3)nc3c2CCN(c2cccc4cccc(Cl)c24)C3)C[C@@H]1CC#N [Compound 186, 2-((S)-1-acryloyl-4-(7-(8-chloronaphthalen-1-yl)-2-(((R)-1-(3-(2,4-dihydroxy-5-isopropylphenyl)-3-oxopropyl)pyrrolidin-3-yl)methoxy)-5,6,7,8-tetrahydropyrido[3,4-d]pyrimidin-4-yl)piperazin-2-yl)acetonitrile, trifluoroacetic acid]
inhibition at 10 µM (KRAS(G12C) [3]): 33 to 66%
DC50 (KRAS(G12C) [6]): > 1000 nM
IC50 (KRAS(G12C) [5]): 100 to 1000 nM
IC50 (HSP90a protein): > 1000 nM

C=CC(=O)N1CCN(c2nc(OC[C@@H]3CCN(C(=O)c4cc(C(C)C)c(OC)cc4O)C3)nc3c2CCN(c2cccc4cccc(Cl)c24)C3)C[C@@H]1CC#N [Compound 159, 2-((S)-1-acryloyl-4-(7-(8-chloronaphthalen-1-yl)-2-(((R)-1-(2-hydroxy-5-isopropyl-4-methoxybenzoyl)pyrrolidin-3-yl)methoxy)-5,6,7,8-tetrahydropyrido[3,4-d]pyrimidin-4-yl)piperazin-2-yl)acetonitrile]
inhibition at 0.1562 µM (KRAS(G12C) [3]): < 33%
inhibition at 0.3125 µM (KRAS(G12C) [3]): < 33%
inhibition at 0.625 µM (KRAS(G12C) [3]): < 33%
inhibition at 1.25 µM (KRAS(G12C) [3]): < 33%
inhibition at 2.5 µM (KRAS(G12C) [3]): < 33%
inhibition at 5 µM (KRAS(G12C) [3]): < 33%
inhibition at 10 µM (KRAS(G12C) [3]): < 33%
EC50 [2]: > 1000 nM
IC50 (KRAS(G12C) [5]): > 1000 nM
IC50 (HSP90a protein): > 1000 nM

C=CC(=O)N1CCN(c2nc(OC[C@@H]3CCN(C(=O)c4cc(CC)c(O)cc4O)C3)nc3c2CCN(c2cccc4cccc(Cl)c24)C3)C[C@@H]1CC#N [Compound 158, 2-((S)-1-acryloyl-4-(7-(8-chloronaphthalen-1-yl)-2-(((R)-1-(5-ethyl-2,4-dihydroxybenzoyl)pyrrolidin-3-yl)methoxy)-5,6,7,8-tetrahydropyrido[3,4-d]pyrimidin-4-yl)piperazin-2-yl)acetonitrile]
inhibition at 0.1562 µM (KRAS(G12C) [3]): < 33%
inhibition at 0.3125 µM (KRAS(G12C) [3]): < 33%
inhibition at 0.625 µM (KRAS(G12C) [3]): < 33%
inhibition at 1.25 µM (KRAS(G12C) [3]): < 33%
inhibition at 2.5 µM (KRAS(G12C) [3]): < 33%
inhibition at 5 µM (KRAS(G12C) [3]): < 33%
inhibition at 10 µM (KRAS(G12C) [3]): < 33%
EC50 [2]: > 1000 nM
EC50 [4]: > 1000 nM
IC50 (KRAS(G12C) [5]): > 1000 nM
IC50 (HSP90a protein): > 1000 nM

Reference: US20230391772A1, “METHODS AND COMPOSITIONS FOR TARGETED PROTEIN DEGRADATION” (Ranok Therapeutics (Hangzhou) Co. Ltd., priority 2020, published 2023)
